Test system: hepatocytes
Assay: Seq-Well scRNA-Seq of hepatocytes after APAP overdose (signature scores, DEG vs untreated)
Assay type: in vivo, mouse
[1] = cluster A6, DEG between treatment (APAP and PH)

Structure (SMILES): CC(=O)Nc1ccc(O)cc1 [APAP, acetaminophen]
- Ugdh avg_logFC (cluster A6 (APAP 6 hr)): 0.5563
- Ugdh pct.1 (cluster A6 (APAP 6 hr)): 0.721
- Vcam1 avg_logFC (cluster A6 (APAP 6 hr)): 0.4376
- Vcam1 pct.1 (cluster A6 (APAP 6 hr)): 0.134
- Vsig4 avg_logFC (cluster A6 (APAP 6 hr)): 0.4542
- Vsig4 pct.1 (cluster A6 (APAP 6 hr)): 0.117
- Wfdc17 avg_logFC (cluster A6 (APAP 6 hr)): 0.4173
- Wfdc17 pct.1 (cluster A6 (APAP 6 hr)): 0.177
- Xbp1 avg_logFC (cluster A6 (APAP 6 hr)): 0.4407
- Xbp1 pct.1 (cluster A6 (APAP 6 hr)): 0.692
- Ywhag avg_logFC (cluster A6 (APAP 6 hr)): 0.4649
- Ywhag pct.1 (cluster A6 (APAP 6 hr)): 0.518
- mmu-mir-6240 avg_logFC (cluster A6 (APAP 6 hr)): 1.083
- mmu-mir-6240 pct.1 (cluster A6 (APAP 6 hr)): 0.413
- avg_logFC 1700017B05Rik [1]: 0.3277
- avg_logFC 2010003K11Rik [1]: 0.5729
- avg_logFC AA474408 [1]: 0.2664
- avg_logFC Aass [1]: 0.4071
- avg_logFC Abca1 [1]: 0.6539
- avg_logFC Abhd2 [1]: 0.4149
- avg_logFC Actb [1]: 1.052
- avg_logFC Aff4 [1]: 0.5363
- avg_logFC Agpat9 [1]: 0.3049
- avg_logFC Alb [1]: 0.3749
- avg_logFC Apoa4 [1]: 1.166
- avg_logFC Apob [1]: 0.4802
- avg_logFC App [1]: 0.3381
- avg_logFC Arhgef12 [1]: 0.4856
- avg_logFC Asl [1]: 0.4135
- avg_logFC B4galt5 [1]: 0.4239
- avg_logFC Bach1 [1]: 0.7686
- avg_logFC Bcl2l1 [1]: 0.7415
- avg_logFC Bcl3 [1]: 0.2741
- avg_logFC Btg1 [1]: 0.3984
- avg_logFC Btg2 [1]: 0.7669
- avg_logFC C3 [1]: 0.2785
- avg_logFC C230081A13Rik [1]: 0.4184
- avg_logFC Cars [1]: 0.3067
- avg_logFC Ccl6 [1]: 0.7868
- avg_logFC Cdkn1a [1]: 1.252
- avg_logFC Cers6 [1]: 0.5071
- avg_logFC Chic2 [1]: 0.3964
- avg_logFC Chka [1]: 1.403
- avg_logFC Cidec [1]: 0.3067
- avg_logFC Cldn14 [1]: 0.3695
- avg_logFC Clec4f [1]: 1.124
- avg_logFC Cltc [1]: 0.6852
- avg_logFC Creb3l2 [1]: 0.3971
- avg_logFC Ctsl [1]: 0.5128
- avg_logFC Cxadr [1]: 0.6568
- avg_logFC Cyp4a14 [1]: 0.3334
- avg_logFC D10Wsu102e [1]: 0.5698
- avg_logFC Ddx3x [1]: 0.5612
- avg_logFC Ddx5 [1]: 0.5397
- avg_logFC Ddx21 [1]: 0.6559
- avg_logFC Dgkd [1]: 0.3584
- avg_logFC Dkc1 [1]: 0.3054
- avg_logFC Dot1l [1]: 0.3853
- avg_logFC Dusp6 [1]: 0.5087
- avg_logFC Dusp16 [1]: 0.4273
- avg_logFC Eaf1 [1]: 0.5072
- avg_logFC Eef2 [1]: 0.4059
- avg_logFC Efhd2 [1]: 0.5766
- avg_logFC Egr1 [1]: 0.537
- avg_logFC Eif1a [1]: 0.7228
- avg_logFC Eif4g2 [1]: 0.4126
- avg_logFC Eif5 [1]: 0.4809
- avg_logFC Epas1 [1]: 0.7138
- avg_logFC Epb4.1 [1]: 0.4678
- avg_logFC Errfi1 [1]: 0.3421
- avg_logFC Etf1 [1]: 0.4526
- avg_logFC Ets2 [1]: 0.6806
- avg_logFC Fam107b [1]: 0.4162
- avg_logFC Fam134b [1]: 0.8152
- avg_logFC Fga [1]: 0.501
- avg_logFC Fgb [1]: 0.4774
- avg_logFC Fgg [1]: 0.4751
- avg_logFC Fkbp5 [1]: 0.4567
- avg_logFC Fndc3b [1]: 0.3496
- avg_logFC Gclc [1]: 1.802
- avg_logFC Gcnt2 [1]: 0.5038
- avg_logFC Gjb2 [1]: 0.5038
- avg_logFC Gm15564 [1]: 0.7861
- avg_logFC Gm20594 [1]: 0.4405
- avg_logFC Gm24245 [1]: 0.4984
- avg_logFC Gm26917 [1]: 0.4239
- avg_logFC Gm26924 [1]: 0.7269
- avg_logFC Gn12 [1]: 0.358
- avg_logFC Gnl3 [1]: 0.4902
- avg_logFC Gpt2 [1]: 0.4695
- avg_logFC Gsta1 [1]: 0.4089
- avg_logFC Gtpbp4 [1]: 0.4623
- avg_logFC H3f3b [1]: 0.7184
- avg_logFC Hbb-bs [1]: 2.586
- avg_logFC Heatr1 [1]: 0.3815
- avg_logFC Hif1a [1]: 0.4876
- avg_logFC Hilpda [1]: 0.7803
- avg_logFC Hmox1 [1]: 1.34
- avg_logFC Hnf4a [1]: 0.6962
- avg_logFC Hnrnpdl [1]: 0.3993
- avg_logFC Hsd17b13 [1]: 0.4804
- avg_logFC Hspb8 [1]: 0.6089
- avg_logFC Ifrd1 [1]: 0.4765
- avg_logFC Igfbp1 [1]: 1.09
- avg_logFC Iigp1 [1]: 0.6431
- avg_logFC Il1r1 [1]: 1.189
- avg_logFC Insig2 [1]: 0.6081
- avg_logFC Itih2 [1]: 0.3927
- avg_logFC Itih3 [1]: 0.4042
- avg_logFC Jak1 [1]: 0.5437
- avg_logFC Jmjd1c [1]: 0.5963
- avg_logFC Kif5b [1]: 0.4522
- avg_logFC Klf6 [1]: 0.7067
- avg_logFC Krt8 [1]: 1.273
- avg_logFC Krt18 [1]: 1.227
- avg_logFC Lars2 [1]: 0.8143
- avg_logFC Lcn2 [1]: 0.3876
- avg_logFC Lmo4 [1]: 0.2962
- avg_logFC Lpin2 [1]: 0.5165
- avg_logFC Lrg1 [1]: 0.3324
- avg_logFC Lrrc58 [1]: 0.9396
- avg_logFC Lrrfip1 [1]: 0.4108
- avg_logFC Lyst [1]: 0.3717
- avg_logFC Mak16 [1]: 0.2897
- avg_logFC Malat1 [1]: 0.9854
- avg_logFC Map2k3 [1]: 0.415
- avg_logFC Map3k5 [1]: 0.3131
- avg_logFC Mat1a [1]: 0.3889
- avg_logFC Mat2a [1]: 0.4758
- avg_logFC Mcl1 [1]: 0.5249
- avg_logFC Mdn1 [1]: 0.3079
- avg_logFC Mfsd2a [1]: 0.461
- avg_logFC Mmp14 [1]: 0.2571
- avg_logFC Mpeg1 [1]: 0.4668
- avg_logFC Mrap [1]: 0.8615
- avg_logFC Mt1 [1]: 2.32
- avg_logFC Mt2 [1]: 2.038
- avg_logFC Mybbp1a [1]: 0.4018
- avg_logFC Myh9 [1]: 1.025
- avg_logFC Myl12a [1]: 0.4029
- avg_logFC Myo1e [1]: 0.5786
- avg_logFC Nars [1]: 0.3687
- avg_logFC Ncl [1]: 0.3882
- avg_logFC Neat1 [1]: 0.6554
- avg_logFC Nedd4l [1]: 0.2635
- avg_logFC Nolc1 [1]: 0.4445
- avg_logFC Nop58 [1]: 0.6343
- avg_logFC Pfkfb2 [1]: 0.2694
- avg_logFC Phc2 [1]: 0.299
- avg_logFC Picalm [1]: 0.6766
- avg_logFC Plec [1]: 0.4188
- avg_logFC Plin2 [1]: 1.454
- avg_logFC Plk3 [1]: 0.4158
- avg_logFC Plscr1 [1]: 0.4497
- avg_logFC Ppan [1]: 0.2767
- avg_logFC Ppl [1]: 0.8618
- avg_logFC Prrc2c [1]: 0.3906
- avg_logFC Ptp4a1 [1]: 0.2517
- avg_logFC Ptpn1 [1]: 0.3865
- avg_logFC Ptpn2 [1]: 0.271
- avg_logFC Ptpn12 [1]: 0.3093
- avg_logFC Pxk [1]: 0.2652
- avg_logFC Rad54l2 [1]: 0.3642
- avg_logFC Ranbp2 [1]: 0.5074
- avg_logFC Rcan1 [1]: 0.701
- avg_logFC Rell1 [1]: 0.5793
- avg_logFC Retsat [1]: 0.2918
- avg_logFC Rnd3 [1]: 0.3267
- avg_logFC Rock2 [1]: 0.5552
- avg_logFC Rora [1]: 0.541
- avg_logFC S100a8 [1]: 1.127
- avg_logFC S100a9 [1]: 1.342
- avg_logFC Sat1 [1]: 0.6887
- avg_logFC Sdad1 [1]: 0.2969
- avg_logFC Sdc4 [1]: 0.5673
- avg_logFC Sds [1]: 0.3515
- avg_logFC Serpina3m [1]: 0.7932
- avg_logFC Serpina3n [1]: 0.6641
- avg_logFC Slc10a2 [1]: 0.2704
- avg_logFC Slc16a6 [1]: 0.914
- avg_logFC Slc20a1 [1]: 0.326
- avg_logFC Slc39a14 [1]: 0.9161
- avg_logFC Smg1 [1]: 0.3045
- avg_logFC Son [1]: 0.4555
- avg_logFC Spred1 [1]: 0.352
- avg_logFC Sqstm1 [1]: 0.6992
- avg_logFC Srgn [1]: 0.9289
- avg_logFC Srxn1 [1]: 1.864
- avg_logFC St3gal1 [1]: 0.517
- avg_logFC St3gal5 [1]: 0.4358
- avg_logFC Stat3 [1]: 0.652
- avg_logFC Stk40 [1]: 0.493
- avg_logFC Stom [1]: 0.3
- avg_logFC Tacc2 [1]: 0.3128
- avg_logFC Tars [1]: 0.4718
- avg_logFC Tatdn2 [1]: 0.3248
- avg_logFC Tbc1d15 [1]: 0.4322
- avg_logFC Tcerg1 [1]: 0.3468
- avg_logFC Tiparp [1]: 0.5248
- avg_logFC Tjp2 [1]: 0.3961
- avg_logFC Tm4sf4 [1]: 0.4006
- avg_logFC Tmem87b [1]: 0.4054

Reference: US20230053540A1, “TREATMENT OF LIVER INJURY” (Massachusetts Institute of Technology, priority 2019, published 2023)
